Experimental findings from patent US20250179073A1, “TRICYCLIC HETEROCYCLE COMPOUNDS AS IAP ANTAGONISTS” (Ascentage Pharma (Suzhou) Co., Ltd., priority 2022, published 2025) are described below.

The subject of assay [1] is MDA-MB-231 cells. The assay is described as follows: Cell proliferation assay (CellTiter-Glo), MDA-MB-231. The class given is cell-based. The following applies: Homo sapiens, MDA-MB-231, 72 h, 72 h treatment, Celltiter-Glo luminescence. In outline:
(§1)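 MDA-MB-231 (RPMI-1640/10% FBS) and EVSA-T (MEM/10% FBS) cells, 10000 cells/well, exposed 72 h to compound at […]. Viability read by CellTiter-Glo luminescence after 15 min at room temperature. IC50 from control-normalised curve fitting.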
In general terms: In ATP-based viability assays light output follows the ATP content of the culture.

In assay [2] the test system is EVSA-T cells. Description: Cell proliferation assay (CellTiter-Glo), EVSA-T. To be noted: Homo sapiens, EVSA-T, 72 h, 72 h treatment, Celltiter-Glo luminescence. The class given is cell-based. In outline:
as §1

As to `C[C@@H]1CN(CC(=O)N2CC(C)(C)c3c2cc(Cc2ccc(F)cc2)c2ncnn32)[C@@H](CN2CCOC3CC32)CN1` (stereo partly drawn) [Compound 202, 2-((2S,5R)-2-((2-oxa-5-azabicyclo[4.1.0]heptan-5-yl)methy 1)-5-methylpiperazin-1-yl)-1-(4-(4-fluorobenzyl)-8,8-dimethyl-7,8-dihydro-6H-pyrrolo[2,3-e][1,2,4]triazolo[1,5-a]pyridin-6-yl)ethan-1-one], the figures for the concentration for half-maximal inhibition (IC50) in assay [1] and in assay [2] were 34 nM and 17 nM, respectively.

On to `C[C@@H]1CN(CC(=O)N2CC(C)(C)c3c2cc(Cc2ccc(F)cc2)c2ncnn32)[C@@H](CN2Cc3ncccc3C2=O)CN1` [Compound 95, 6-(((2R,5R)-1-(2-(4-(4-fluorobenzyl)-8,8-dimethyl-7,8-dihydro-6H-pyrrolo[2,3-e][1,2,4]triazolo[1,5-a]pyridin-6-yl)-2-oxoethyl)-5-methylpiperazin-2-yl)methyl)-6,7-dihydro-5H-pyrrolo[3,4-b]pyridin-5-one], for which the values for the IC50 in assay [1] and in assay [2] were 12 nM and 0.4 nM, respectively.

With `CC(=O)Nc1nc2c(Cc3ccc(F)cc3)cc3c(n2n1)C(C)(C)CN3C(=O)CN1C[C@@H](C)NC[C@@H]1CN1CCOC[C@H]1C` [Example 29, N-(4-(4-fluorobenzyl)-8,8-dimethyl-6-(2-((2R,5R)-5-methyl-2-(((R)-3-methylmorpholino)methyl)piperazin-1-yl)acetyl)-7,8-dihydro-6H-pyrrolo[2,3-e][1,2,4]triazolo[1,5-a]pyridin-2-yl)acetamide], the values for the IC50 in assay [1] and in assay [2] were 100 nM and 10 nM, respectively.

Take `C[C@@H]1CN(CC(=O)N2CC(C)(C)c3c2cc(Cc2ccc(F)cc2)c2nc(N4CCOCC4)nn32)[C@@H](CN2CCOC[C@H]2C)CN1` [Compound 143, 1-(4-(4-fluorobenzyl)-8,8-dimethyl-2-morpholino-7,8-dihydro-6H-pyrrolo[2,3-e][1,2,4]triazolo[1,5-a]pyridin-6-yl)-2-((2R,5R)-5-methyl-2-(((R)-3-methylmorpholino)methyl)piperazin-1-yl)ethan-1-one]: the half-inhibitory concentration (IC50) in assay [1] came to 43 nM; in assay [2], 3 nM.

As to `C[C@@H]1CN(CC(=O)N2CC(C)(C)c3c2cc(Cc2ccc(F)cc2)c2nc(N4CC(O)C4)nn32)[C@@H](CN2CCOC[C@H]2C)CN1` [Compound 159, 1-(4-(4-fluorobenzyl)-2-(3-hydroxyazetidin-1-yl)-8,8-dimethyl-7,8-dihydro-6H-pyrrolo[2,3-e][1,2,4]triazolo[1,5-a]pyridin-6-yl)-2-((2R,5R)-5-methyl-2-(((R)-3-methylmorpholino)methyl)piperazin-1-yl)ethan-1-one], the half-inhibitory concentration (IC50) in assay [1] came to 20 nM; in assay [2], 4 nM.

Take `C[C@@H]1CN(CC(=O)N2CC3(CC3)c3c2cc(Cc2ccc(F)cc2)c2ncnn32)[C@@H](CN2CCOC[C@H]2C)CN1` [Compound 56, 1-(4′-(4-fluorobenzyl)spiro[cyclopropane-1,8′-pyrrolo[2,3-e][1,2,4]triazolo [1,5-a]pyridin]-6′(7′H)-yl)-2-((2R,5R)-5-methyl-2-(((R)-3-methylmorpholino)methyl)piperazin-1-yl)ethan-1-one]: the IC50 worked out at 35 nM in assay [1] and 9 nM in assay [2].

Consider `C[C@@H]1CN(CC(=O)N2CC(C)(C)c3c2cc(Cc2ccc(F)cc2)c2ncc(Br)n32)[C@@H](CN2CCOC[C@H]2C)CN1` [Compound 119, 1-(1-bromo-4-(4-fluorobenzyl)-8,8-dimethyl-7,8-dihydro-6H-imidazo[1,2-a]pyrrolo[2,3-e]pyridin-6-yl)-2-((2R,5R)-5-methyl-2-(((R)-3-methylmorpholino)methyl)piperazin-1-yl)ethan-1-one], for which the IC50 was found to be 100 nM in assay [1] and 6 nM in assay [2].

The term IC50 denotes the concentration at which inhibition is half-maximal.
